Target: KRasG12C (M1-K169, biotinylated on the N-terminus) (Homo sapiens (Human), UniProt P01116, G12C)
Assay: Covalent competition assay: scintillation proximity assay (SPA) quantifying covalent modification of KRASG12C
Assay type: binding
Conditions: competition with radiolabeled covalent probe (Compound B/Compound A), 2 hours incubation, 10 nM KRasG12C
Outline: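 Test compounds compete with a radiolabeled covalent probe for modification of N-terminally biotinylated KRasG12C(M1-K169):GDP, final 10 nM protein, 25 nM radio-ligand, 475 nM unlabelled ligand, 2 h with agitation in 20 mM Tris-HCl pH 7.5, 150 mM NaCl, 0.1 mM MgCl2, 0.01% Tween-20.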

Structure (SMILES) | IC50 [nM]
C=CC(=O)N1C[C@]2(C[C@H](n3nc(N4CCN(C[C@@H]5COCCO5)C[C@]4(C)CC)c(-c4c(Cl)c(C)cc5[nH]ncc45)c3C)C2)[C@H]1C (single isomer, unassigned) [Example 200a] | > 5000
C=CC(=O)N1CC2(CC(n3nc(N4CCN(C[C@@H]5COCCO5)C[C@]4(C)COC)c(-c4c(Cl)c(C)cc5[nH]nc(N)c45)c3C)C2)C1 (single isomer, unassigned) [Example 118a] | 15
C=CC(=O)N1CC2(CC(n3nc(N4CCN(C5CCOCC5)C[C@]4(C)C(F)F)c(-c4c(Cl)c(C)cc5[nH]ncc45)c3C)C2)C1 (single isomer, unassigned) [Example 151b] | > 5000
C=CC(=O)N1CC2(CC(n3nc(N4CCN(C5COC5)C[C@]4(C)CCOC)c(-c4c(Cl)c(C)cc5[nH]ncc45)c3C)C2)C1 (single isomer, unassigned) [Example 86a] | 2300
C=CC(=O)N1CC2(CC(n3nc(N4CCN(C(C)=O)CC45CCC5)c(-c4c(Cl)c(C)cc5[nH]ncc45)c3C)C2)C1 (single isomer, unassigned) [Example 21a, 1-(6-(3-(8-acetyl-5,8-diazaspiro[3.5]nonan-5-yl)-4-(5-chloro-6-methyl-1H-indazol-4-yl)-5-methyl-1H-pyrazol-1-yl)-2-azaspiro[3.3]heptan-2-yl)prop-2-en-1-one] | 11100
C=CC(=O)N1CC2(CC(n3nc(N4CCC(N(CCOC)CCOC)CC45CCC5)c(-c4c(Cl)c(Cl)cc5[nH]ncc45)c3C)C2)C1 (single isomer, unassigned) [Example 80b, 1-(6-(3-(8-(bis(2-methoxyethyl)amino)-5-azaspiro[3.5]nonan-5-yl)-4-(5,6-dichloro-1H-indazol-4-yl)-5-methyl-1H-pyrazol-1-yl)-2-azaspiro[3.3]heptan-2-yl)prop-2-en-1-one] | 7
C=CC(=O)N1CC2(CC(n3nc(N4CCC(C(=O)N(C)C)CC4(C)C)c(-c4c(Cl)c(C)cc5[nH]ncc45)c3C)C2)C1 (single isomer, unassigned) [Example 99a, 1-(1-(2-acryloyl-2-azaspiro[3.3]heptan-6-yl)-4-(5-chloro-6-methyl-1H-indazol-4-yl)-5-methyl-1H-pyrazol-3-yl)-N,N,2,2-tetramethylpiperidine-4-carboxamide] | 2900
C=C(F)C(=O)N1CC2(CC(n3nc(N4CCN(C[C@@H]5COCCO5)C[C@]4(C)COC)c(-c4c(Cl)c(Cl)cc5[nH]ncc45)c3C)C2)C1 (single isomer, unassigned) [Example 184a] | > 5000
C=CC(=O)N1CC2(CC(n3nc(N4CCC(CN5CC6CC(C5)O6)CC4(C)C)c(-c4c(Cl)c(Cl)cc5[nH]ncc45)c3C)C2)C1 (single isomer, unassigned) [Example 228a, 1-(6-(3-(4-((6-oxa-3-azabicyclo[3.1.1]heptan-3-yl)methyl)-2,2-dimethylpiperidin-1-yl)-4-(5,6-dichloro-1H-indazol-4-yl)-5-methyl-1H-pyrazol-1-yl)-2-azaspiro[3.3]heptan-2-yl)prop-2-en-1-one] | > 5000
C=CC(=O)N1CC2(CC(n3nc(N4CCC5C(CC(=O)N5C)C4)c(-c4c(Cl)c(C)cc5[nH]ncc45)c3C)C2)C1 (single isomer, unassigned) [Example 39b, 5-(1-(2-acryloyl-2-azaspiro[3.3]heptan-6-yl)-4-(5-chloro-6-methyl-1H-indazol-4-yl)-5-methyl-1H-pyrazol-3-yl)-1-methyloctahydro-2H-pyrrolo[3,2-c]pyridin-2-one] | 75
C=CC(=O)N1CC2(CC(n3nc(N4CCC(C)(O)CC4(C)C)c(-c4c(Cl)c(C)cc5[nH]ncc45)c3C)C2)C1 (single isomer, unassigned) [Example 27a, 1-(6-(4-(5-chloro-6-methyl-1H-indazol-4-yl)-3-(4-hydroxy-2,2,4-trimethylpiperidin-1-yl)-5-methyl-1H-pyrazol-1-yl)-2-azaspiro[3.3]heptan-2-yl)prop-2-en-1-one] | 2700
C=CC(=O)N1CC2(CC(n3nc(N4CC[C@@H](CN5CCOCC5)CC4(C)C)c(-c4c(Cl)c(C)cc5[nH]nc(C)c45)c3C#N)C2)C1 (single isomer, unassigned) [Example 225a] | 341
C=CC(=O)N1CC2(CC(n3nc(N4CCN(CC(C)(C)O)C[C@]4(C)CC)c(-c4c(Cl)c(C)cc5[nH]ncc45)c3C)C2)C1 (single isomer, unassigned) [Example 161a] | 912
C=CC(=O)N1CC2(CC(n3nc(N4C5CCC4COC5)c(-c4c(Cl)c(C)cc5[nH]ncc45)c3C)C2)C1 (single isomer, unassigned) [Example 112a] | > 5000

Continued, values first:

IC50 [nM] | Structure (SMILES)
12 | C=CC(=O)N1CC2(CC(n3nc(N4CC[C@@H](CN5CC6CC6(O)C5)CC4(C)C)c(-c4c(Cl)c(Cl)cc5[nH]ncc45)c3C)C2)C1 (single isomer, unassigned) [Example 257b]
> 5000 | C=CC(=O)N1CC2(CC(n3nc(N4CC[C@@H](CN5C[C@@H]6C[C@H]5CS6(=O)=O)CC4(C)C)c(-c4c(Cl)c(Cl)cc5[nH]ncc45)c3C)C2)C1 (single isomer, unassigned) [Example 249a]
2500 | C=CC(=O)N1CC2(CC(n3nc(N4CCC(CN5CCS(=O)(=O)CC5)CC4(C)C)c(-c4c(Cl)c(Cl)cc5[nH]ncc45)c3C)C2)C1 (single isomer, unassigned) [Example 236b, 1-(6-(4-(5,6-dichloro-1H-indazol-4-yl)-3-(4-((1,1-dioxidothiomorpholino)methyl)-2,2-dimethylpiperidin-1-yl)-5-methyl-1H-pyrazol-1-yl)-2-azaspiro[3.3]heptan-2-yl)prop-2-en-1-one]
> 5000 | C=CC(=O)N1CC2(CC(n3nc(N4CC[C@@H](CN5CC6OCCN(C)C6C5)CC4(C)C)c(-c4c(Cl)c(Cl)cc5[nH]ncc45)c3C)C2)C1 (single isomer, unassigned) [Example 260a, 1-(6-(4-(5,6-dichloro-1H-indazol-4-yl)-3-((R)-2,2-dimethyl-4-(((4aR*,7aS*)-4-methylhexahydropyrrolo[3,4-b][1,4]oxazin-6(2H)-yl)methyl)piperidin-1-yl)-5-methyl-1H-pyrazol-1-yl)-2-azaspiro[3.3]heptan-2-yl)prop-2-en-1-one]
> 5000 | C=CC(=O)N1CC2(CC(n3nc(N4CCN(C5CCCOC5)C[C@]4(C)CC)c(-c4c(Cl)c(C)cc5[nH]ncc45)c3C)C2)C1 (single isomer, unassigned) [Example 157a]
6 | C=CC(=O)N1CC2(CC(n3nc(N4CC[C@@H](CN5CCP(C)(=O)CC5)CC4(C)C)c(-c4c(Cl)c(Cl)cc5[nH]ncc45)c3C)C2)C1 (single isomer, unassigned) [Example 269b]
> 5000 | C=CC(=O)N1CC2(CC(n3nc(N4CCN(C5CCCOC5)C[C@]4(C)CC)c(-c4c(Cl)c(C)cc5[nH]ncc45)c3C)C2)C1 (single isomer, unassigned) [Example 157b]
15 | C=CC(=O)N1CC2(CC(n3nc(N4CCN(C5COC5)CC4(C)C)c(-c4c(Cl)c(Cl)cc5[nH]ncc45)c3C)C2)C1 (single isomer, unassigned) [Example 73b, 1-(6-(4-(5,6-dichloro-1H-indazol-4-yl)-3-(2,2-dimethyl-4-(oxetan-3-yl)piperazin-1-yl)-5-methyl-1H-pyrazol-1-yl)-2-azaspiro[3.3]heptan-2-yl)prop-2-en-1-one]

From patent US20240317721A1, “PYRAZOLYL DERIVATIVES AS INHIBITORS OF THE KRAS MUTANT PROTEIN” (NOVARTIS AG, priority 2021, published 2024)
